Here are results for 35 compounds from patent publication US9139581B2 (PORTOLA PHARMACEUTICALS, INC., priority 2008, dated 2015).

Some results are limits rather than exact numbers.

In the first experiment the target is T1, full length active recombinant SYK enzyme (Homo sapiens, UniProt P43405).
T1 construct: full length active recombinant SYK enzyme (Millipore, Calif.); purchased Millipore
Nature of the experiment: Inhibition of Syk tyrosine phosphorylation activity (LANCE TR-FRET). In kind it is biochemical. Particulars: Table 3; 1 nM SYK, 100 μM ATP; read-out: Syk IC50 code. An outline of the steps: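 The reaction is quenched with buffer holding Eu-anti-phosphotyrosine and streptavidin-APC, and detection runs 1 hr at room temperature. TR-FRET is read and IC50s come from non-linear regression.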
With `O=S1(=O)CCC(Nc2nc(Nc3ccc(N4CCNCC4)cc3)nc3[nH]ccc23)C1` (centres unmarked) [Example 100B, N2-(4-(piperazin-1-yl)phenyl)-N4-(1,1-dioxy-tetrahydrothiophen-3-yl)-7H-pyrrolo[2,3-d]pyrimidine-2,4-diamine], the IC50 is greater than 1000 nM.

With `N#Cc1c[nH]c2nc(Nc3ccc4c(c3)CCC(=O)N4)nc(NC3CC3)c12` [Example 103, 4-(cyclopropylamino)-2-(2-oxo-1,2,3,4-tetrahydroquinolin-6-ylamino)-7H-pyrrolo[2,3-d]pyrimidine-5-carbonitrile], the IC50 was 1 to 10 nM.

Regarding `CC(=O)N(C)c1ccc(Nc2nc(Nc3cccc(CN)c3)c3cc[nH]c3n2)cc1` [Example 97, N-(4-(4-(3-(aminomethyl)phenylamino)-7H-pyrrolo[2,3-d]pyrimidin-2-ylamino)phenyl)-N-methylacetamide], the IC50 fell in the range of 100 to 1000 nM.

As for `COCCNc1nc(Nc2ccc(N3CCN(C(C)=O)CC3)cc2)nc2[nH]ccc12` [Example 90, 1-(4-(4-(4-(2-methoxyethylamino)-7H-pyrrolo[2,3-d]pyrimidin-2-ylamino)phenyl)piperazin-1-yl)ethanone], the IC50 fell in the range of 100 to 1000 nM.

For the compound `NC(=O)c1cnc(-n2ncc3ccc(N)c(Cl)c32)nc1NC1CC1` [Example 7, 2-(6-amino-7-chloro-1H-indazol-1-yl)-4-(cyclopropylamino)pyrimidine-5-carboxamide], the IC50 was in the range of 100 to 1000 nM.

As for `CC(=O)c1c[nH]c2nc(Nc3ccc4cn[nH]c4c3)nc(NC3CC3)c12` [Example 42, 1-(2-(1H-indazol-6-ylamino)-4-(cyclopropylamino)-7H-pyrrolo[2,3-d]pyrimidin-5-yl)ethanone], the IC50 lay within 100 to 1000 nM.

As for `CC(=O)N1CCN(c2ccc(Nc3nc(N[C@@H](C)CO)c4cc[nH]c4n3)cc2)CC1` [Example 99A, (S)-1-(4-(4-(4-(1-hydroxypropan-2-ylamino)-7H-pyrrolo[2,3-d]pyrimidin-2-ylamino)phenyl)piperazin-1-yl)ethanone], the IC50 fell in the range of 100 to 1000 nM.

Consider `CNc1nc(Nc2ccc3cn[nH]c3c2)nc2[nH]cc(-c3ccncc3)c12` [Example 1, N2-(1H-indazol-6-yl)-N4-methyl-5-(pyridin-4-yl)-7H-pyrrolo[2,3-d]pyrimidine-2,4-diamine], for which the IC50 fell in the range of 10 to 100 nM.

With `NS(=O)(=O)c1cccc(Nc2nc(Nc3ccc(N4CCNCC4)cc3)nc3[nH]ccc23)c1` [Example 96B, 3-(2-(4-(piperazin-1-yl)phenylamino)-7H-pyrrolo[2,3-d]pyrimidin-4-ylamino)benzenesulfonamide], the IC50 lay in the range of 10 to 100 nM.

As to `CC(C)(C)OC(=O)N1CCC(Nc2nc(Nc3ccc4cn[nH]c4c3)nc3[nH]ccc23)CC1` [Example 57, tert-butyl 4-(2-(1H-indazol-6-ylamino)-7H-pyrrolo[2,3-d]pyrimidin-4-ylamino)piperidine-1-carboxylate], the IC50 is greater than 1000 nM.

Turning to `c1cc2c(NC3CCNCC3)nc(Nc3ccc4cn[nH]c4c3)nc2[nH]1` [Example 58, N2-(1H-indazol-6-yl)-N4-(piperidin-4-yl)-7H-pyrrolo[2,3-d]pyrimidine-2,4-diamine], the IC50 was in the range of 100 to 1000 nM.

Turning to `O=C1CCc2cc(Nc3ncc(F)c(N4CCC(CO)CC4)n3)ccc2N1` [Example 39, 6-(5-fluoro-4-(4-(hydroxymethyl)piperidin-1-yl)pyrimidin-2-ylamino)-3,4-dihydroquinolin-2(1H)-one], the IC50 is 100 to 1000 nM.

Consider `CC(=O)N1CCN(c2ccc(Nc3nc(NCC4CCNCC4)c4c(C#N)c[nH]c4n3)cc2)CC1` [Example 45, 2-(4-(4-acetylpiperazin-1-yl)phenylamino)-4-(piperidin-4-ylmethylamino)-7H-pyrrolo[2,3-d]pyrimidine-5-carbonitrile], for which the IC50 is 100 to 1000 nM.

As to `NCC1CCN(c2nc(Nc3ccc(C(=O)O)cc3)ncc2F)CC1` [Example 131, 4-(4-(4-(aminomethyl)piperidin-1-yl)-5-fluoropyrimidin-2-ylamino)benzoic acid], the IC50 lay in the range of 10 to 100 nM.

As for `CN(C(=O)C1CC1)c1ccc(Nc2nc(NC3CCC3)c3cc[nH]c3n2)cc1` [Example 80, N-(4-(4-(cyclobutylamino)-7H-pyrrolo[2,3-d]pyrimidin-2-ylamino)phenyl)-N-methylcyclopropanecarboxamide], the IC50 lay within 100 to 1000 nM.

For `Brc1c[nH]c2nc(Nc3ccc4cn[nH]c4c3)nc(NC3CCC3)c12` [Example 49, 5-bromo-N4-cyclobutyl-N2-(1H-indazol-6-yl)-7H-pyrrolo[2,3-d]pyrimidine-2,4-diamine], the IC50 was in the range of 1 to 10 nM.

With `CN(C(=O)CO)c1ccc(Nc2nc(NC3CCC3)c3cc[nH]c3n2)cc1` [Example 74, N-(4-(4-(cyclobutylamino)-7H-pyrrolo[2,3-d]pyrimidin-2-ylamino)phenyl)-2-hydroxy-N-methylacetamide], the IC50 fell in the range of 10 to 100 nM.

As to `C[C@H](CO)Nc1nc(Nc2ccc(N3CCNCC3)cc2)nc2[nH]ccc12` [Example 98B, (R)-2-(2-(4-(piperazin-1-yl)phenylamino)-7H-pyrrolo[2,3-d]pyrimidin-4-ylamino)propan-1-ol], the IC50 was 100 to 1000 nM.

On to `NC(=O)c1c[nH]c2nc(Nc3ccc4c(c3)CCC(=O)N4)nc(NC3CC3)c12` [Example 108, 4-(cyclopropylamino)-2-(2-oxo-1,2,3,4-tetrahydroquinolin-6-ylamino)-7H-pyrrolo[2,3-d]pyrimidine-5-carboxamide], for which the IC50 was greater than 1000 nM.

For `CS(=O)(=O)Cc1ccc(Nc2nc(NC3CCC3)c3cc[nH]c3n2)cc1` [Example 76], the IC50 was 100 to 1000 nM.

For the compound `CN(C(=O)CCO)c1ccc(Nc2nc(NC3CCC3)c3cc[nH]c3n2)cc1` [Example 86, N-(4-(4-(cyclobutylamino)-7H-pyrrolo[2,3-d]pyrimidin-2-ylamino)phenyl)-3-hydroxy-N-methypropanamide], the IC50 is 10 to 100 nM.

`CN1C(=O)CCc2cc(Nc3nc(N)c4c(-c5ccc(F)cc5)c[nH]c4n3)ccc21` [Example 113, 6-(4-Amino-5-(4-fluorophenyl)-7H-pyrrolo[2,3-d]pyrimidin-2-ylamino)-1-methyl-3,4-dihydroquinolin-2(1H)-one]: the IC50 was greater than 1000 nM.

For `CC(=O)N1CCN(c2ccc(Nc3nc(Nc4cccc(C(N)=O)c4)c4cc[nH]c4n3)cc2)CC1` [Example 95A, 3-(2-(4-(4-acetylpiperazin-1-yl)phenylamino)-7H-pyrrolo[2,3-d]pyrimidin-4-ylamino)benzamide], the IC50 is 100 to 1000 nM.

Consider `N#CCC(=O)N1CCC(Nc2nc(Nc3ccc(C(N)=O)cc3)nc3[nH]ccc23)CC1` [Example 109, 4-(4-(1-(2-cyanoacetyl)piperidin-4-ylamino)-7H-pyrrolo[2,3-d]pyrimidin-2-ylamino)benzamide], for which the IC50 is greater than 1000 nM.

As for `CC(=O)N(C)c1ccc(Nc2nc(NC3CC3)c3c(C#N)c[nH]c3n2)cc1` [Example 105, N-(4-(5-cyano-4-(cyclopropylamino)-7H-pyrrolo[2,3-d]pyrimidin-2-ylamino)phenyl)-N-methylacetamide], the IC50 fell in the range of 10 to 100 nM.

As to `CC(=O)N(C)c1ccc(Nc2nc(NCCN)c3cc[nH]c3n2)cc1` [Example 64, N-(4-(4-(2-aminoethylamino)-7H-pyrrolo[2,3-d]pyrimidin-2-ylamino)phenyl)-N-methylacetamide], the IC50 was in the range of 100 to 1000 nM.

Turning to `CN(C(=O)CCO)c1ccc(Nc2nc(NC3CC3)c3cc[nH]c3n2)cc1` [Example 87, N-(4-(4-(cyclopropylamino)-7H-pyrrolo[2,3-d]pyrimidin-2-ylamino)phenyl)-3-hydroxy-N-methypropanamide], the IC50 lay in the range of 10 to 100 nM.

For `CN(C)CCNC(=O)CN1C(=O)CCc2cc(Nc3nc(NC4CCC4)c4cc[nH]c4n3)ccc21` [Example 71, 2-(6-(4-(cyclobutyamino)-7H-pyrrolo[2,3-d]pyrimidine-2-ylamino)-2-oxo-3,4-dihydroquinolin-1(2H)-yl)-N-(2-(dimethylamino)ethyl)acetamide], the IC50 was 100 to 1000 nM.

Regarding `NC(=O)CC1CCN(c2nc(Nc3ccc4c(c3)CCC(=O)N4)nc3[nH]ccc23)CC1` [Example 121, 2-(1-(2-(2-oxo-1,2,3,4-tetrahydroquinolin-6-ylamino)-7H-pyrrolo[2,3-d]pyrimidin-4-yl)piperidin-4-yl)acetamide], the IC50 was 100 to 1000 nM.

The experiment is the same for the next values; noted with them: Table 4; 1 nM SYK, 100 μM ATP; read-out: syk IC50.
For the compound `CC(=O)N1CCN(c2ccc(Nc3nc(N4CCCC4)c4cc[nH]c4n3)cc2)CC1` [Example 22, 1-(4-(4-(4-(pyrrolidin-1-yl)-7H-pyrrolo[2,3-d]pyrimidin-2-ylamino)phenyl)piperazin-1-yl)ethanone], the IC50 lay in the range of 100 to 1000 nM.

For the compound `NCC1CCN(c2nc(Nc3ccc(S(N)(=O)=O)cc3)ncc2F)CC1` [Example 32, 4-(4-(4-(aminomethyl)piperidin-1-yl)-5-fluoropyrimidin-2-ylamino)benzenesulfonamide], the IC50 was 10 to 100 nM.

Turning to `CC(=O)N1CCN(c2ccc(Nc3ncc(C(N)=O)c(N4CCCN(CCO)CC4)n3)cc2)CC1` [2-(4-(4-acetylpiperazin-1-yl)phenylamino)-4-(4-(2-hydroxyethyl)-1,4-diazepan-1-yl)pyrimidine-5-carboxamide], the IC50 lay in the range of 100 to 1000 nM.

On to `CC(=O)N1CCN(c2ccc(Nc3ncc(C(N)=O)c(N4CCC(CN)CC4)n3)cc2)CC1` [Example 25, 2-(4-(4-acetylpiperazin-1-yl)phenylamino)-4-(4-(aminomethyl)piperidin-1-yl)pyrimidine-5-carboxamide], for which the IC50 is greater than 1000 nM.

Regarding `O[C@H]1CCN(c2nc(Nc3ccc(N4CCNCC4)cc3)nc3[nH]ccc23)C1` [Example 12, (S)-1-(2-(4-(piperazin-1-yl)phenylamino)-7H-pyrrolo[2,3-d]pyrimidin-4-yl)pyrrolidin-3-ol], the IC50 is greater than 1000 nM.

Consider `CC(=O)N1CCN(c2ccc(Nc3nc(N4CC[C@H](O)C4)c4cc[nH]c4n3)cc2)CC1` [Example 13, (S)-1-(4-(4-(4-(3-hydroxypyrrolidin-1-yl)-7H-pyrrolo[2,3-d]pyrimidin-2-ylamino)phenyl)piperazin-1-yl)ethanone], for which the IC50 is greater than 1000 nM.
